In patent US20260055117A1, “SUBSTITUTED PYRIDONE GPR84 ANTAGONISTS AND USES THEREOF” (Liminal BioSciences Limited, priority 2022, published 2026):

Target: T1, human GPR84 receptor (Homo sapiens, UniProt Q9NQS5)
T1 construct: host or cells: HEK293, transiently transfected
Test: Gαi biosensor BRET assay (GPR84 antagonism vs agonist ZQ-16)
Format: cell-based
Details: HEK293 cells, 200 nmol/L agonist ZQ-16; for IC50: Gαi biosensor BRET assay; for inhibition at 2 µM: tested at 2 μM (concentration code A); for inhibition at 10 µM: tested at 10 μM (concentration code D)
Source text: Background—The following assays can be used for determination of GPR84 activation in living HEK293 cells. The Gai BRET biosensor (Gagnon et al., 2018; Gales et al., 2006. Nat Struct Mol Biol. 13, 778-86; Saulieres et al., 2012. Nat Chem Biol. 8, 622-30) allows to directly monitor GPR84-mediated activation of Gai. The Gai biosensor consists of a Rluc8-tagged Gai2 subunit, a GFP10-tagged Gy2 subunit, and an untagged GB1. Agonist stimulation and GPR84 activation triggers a physical separation between the RLuc8-Gai donor and the GFP10-Gy2 acceptor, resulting in a decrease in BRET signal whose amplitude is correlated to ligand efficacy (Gales et al., 2006). Moreover, signaling functions of GPCRs are tightly regulated by endocytosis, the targeting of receptors to endosomes and their sorting to lysosomes or recycling to the plasma membrane. The early endosomes (EEs) trafficking assay (Namkung et al., 2016. Nat Commun. 7, 12178) uses Rluc8-tagged GPR84 and Renilla GFP (rGFP) attached to the FYVE domain from human endofin/zinc finger FYVE domain-containing protein 16, which binds phosphatidylinositol 3-phosphate in EEs. Agonist stimulation of GPR84-Rluc8 leads to trafficking of the receptor to EEs, and ensuing increase of the donor concentration relative to the rGFP-FYVE acceptor anchored in the same cellular compartment, and thus results in an increase in BRET signal.
Plasmids—The cDNA clones for human GPR84 receptor, human Gai2, GB1, and Gy2 were obtained from the cDNA Resource Center (www.cdna.org). GFP10 (F64L, S147P, S202F and H231L variant of Aequorea victoria Green Fluorescent Protein) gBlocks gene fragments (Integrated DNA Technologies, IA) and linker were inserted in frame at the N-terminus of human Gy2. Rluc8 (A55T, C124A, S130A, K136R, A143M, M185V, M253L, and S287L variant of the Renilla reniformis luciferase) gBlocks gene fragment was inserted with linkers in frame in between residues 91 and 92 of Gai2 or at the C-terminus of GPR84. The FYVE domain from human endofin (residues Q739 to K806) attached in frame at the C terminus of a humanized Renilla GFP (rGFP), were synthesized as gBlocks gene fragments.
Bioluminescence Resonance Energy Transfer (BRET) Measurement-HEK293 cells were transfected with GPR84-Rluc8 and rGFP-FYVE for the EEs trafficking biosensor or with GPR84, Gai2-Rluc8, GFP10-Gy2, and GB1 for the Ga; biosensor. The following day, transiently transfected cells were seeded in 96-well white clear bottom microplates coated with poly-D-lysine and left in culture for 24 hours. Cells were washed once with Tyrode's buffer (140 mmol/L NaCl, 1 mmol/L CaCl2), 2.7 mmol/L KCl, 0.49 mmol/L MgCl2, 0.37 mmol/L NaH2PO4, 5.6 mmol/L glucose, 12 mmol/L NaHCO3, and 25 mmol/L HEPES, pH 7.5) before performing assays in Tyrode's buffer. Test compounds were incubated with cells for 5 (Gai) or 15 (EEs) minutes at 37° C. before addition of 200 nmol/L of the GPR84 agonist ZQ-16 (2-(Hexylthio)-6-hydroxy-4 (3H)-pyrimidinone) for 5 minutes at room temperature (Gai) or 30 minutes at 37° C. (EEs). The Rluc8 substrate coelenterazine 400A (Prolume, Lakeside, A Z) was added at a final concentration of 5 μmol/L and BRET readings were collected using an Infinite M1000 microplate reader (Tecan, Morrisville, N C). BRET2 readings between Rluc8 and GFP10 or rGFP were collected by sequential integration of the signals detected in the 370 to 450 nm (Rluc8) and 510 to 540 nm (GFP10, rGFP) windows. The BRET signal was calculated as the ratio of light emitted by acceptor (GFP10, rGFP) over the light emitted by donor (Rluc8). The values were corrected to net BRET by subtracting the background BRET signal obtained in cells transfected with Rluc8 constructs alone. Ligand-promoted net BRET values were calculated by subtracting vehicle-induced net BRET from ligand-induced net BRET.

T1 sequence (Q9NQS5 whole entry): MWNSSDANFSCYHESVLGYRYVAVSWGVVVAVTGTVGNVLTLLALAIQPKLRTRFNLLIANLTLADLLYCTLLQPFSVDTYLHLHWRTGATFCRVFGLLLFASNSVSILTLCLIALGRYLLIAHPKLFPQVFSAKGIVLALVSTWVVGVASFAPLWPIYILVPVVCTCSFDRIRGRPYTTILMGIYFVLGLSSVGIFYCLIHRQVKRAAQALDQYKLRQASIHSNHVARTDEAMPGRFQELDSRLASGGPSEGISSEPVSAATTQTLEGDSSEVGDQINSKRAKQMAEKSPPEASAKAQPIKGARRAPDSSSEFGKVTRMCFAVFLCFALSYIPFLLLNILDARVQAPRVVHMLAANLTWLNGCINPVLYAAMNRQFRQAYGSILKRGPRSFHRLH

| IC50 [µM] | inhibition at 2 µM [%] | inhibition at 10 µM [%] | SMILES |
| --- | --- | --- | --- |
| – | – | > 75 | Cc1cc(OCC(=O)N2CC3(CCN(C)CC3)C2)cc(=O)n1[C@H](C)c1ccc(C#CC2CC2)cc1 [Compound I-79] |
| ≤ 0.3 | > 75 | – | Cc1cc(OCC(=O)N2CCCCC2)cc(=O)n1[C@H](C)c1ccc(C#CC2CC2)cc1 [Compound I-341] |
| – | – | 25 to 50 | Cc1cc(OCCN2CCCC2)cc(=O)n1[C@H](C)c1ccc(C#CC2CC2)cc1 [Compound I-281] |
| ≤ 0.3 | > 75 | – | Cc1cc(OCC(=O)N2CCC[C@H]2CO)cc(=O)n1[C@H](C)c1ccc(C#CC2CC2)cc1 [Compound I-248] |
| ≤ 0.3 | > 75 | – | CCN(C)C(=O)COc1cc(C)n([C@H](C)c2ccc(C#CC3CC3)cc2)c(=O)c1 [Compound I-267] |
| ≤ 0.3 | > 75 | – | Cc1cc(OCC(=O)N2C[C@H](O)[C@@H](O)C2)cc(=O)n1[C@H](C)c1ccc(C#CC2CC2)cc1 [Compound I-314] |
| – | > 75 | – | Cc1cc(OCC(=S)N(C)C)cc(=O)n1[C@H](C)c1ccc(C#CC2CC2)cc1 [Compound I-279] |
| ≤ 0.3 | > 75 | – | Cc1cc(OCC(=O)N2CC[C@H](F)C2)cc(=O)n1[C@H](C)c1ccc(C#CC2CC2)cc1 [Compound I-244] |
| – | – | > 75 | Cc1cc(OCC(=O)N2CC(C)OC(C)C2)cc(=O)n1[C@H](C)c1ccc(C#CC2CC2)cc1 (stereo partly shown) [Compound I-348] |
| – | – | > 75 | Cc1cc(OCC2(N(C)C)COC2)cc(=O)n1[C@H](C)c1ccc(C#CC2CC2)cc1 [Compound I-36] |
| ≤ 0.3 | > 75 | – | Cc1cc(OCC(=O)N2CC[C@@H](F)C2)cc(=O)n1[C@H](C)c1ccc(C#CC2CC2)cc1 [Compound I-243] |
| ≤ 0.3 | > 75 | – | Cc1cc(OCC(=O)N2CCC[C@@H]2C2CC2)cc(=O)n1[C@H](C)c1ccc(C#CC2CC2)cc1 [Compound I-307] |
| ≤ 0.3 | > 75 | – | Cc1cc(OCC(=O)N2CCC[C@@H]2C(F)(F)F)cc(=O)n1[C@H](C)c1ccc(C#CC2CC2)cc1 [Compound I-254] |
| – | > 75 | – | Cc1cc(OCC(=O)N(C)CC(=O)O)cc(=O)n1[C@H](C)c1ccc(C#CC2CC2)cc1 [Compound I-350] |
| ≤ 0.3 | > 75 | – | Cc1cc(OCC(=O)N2CCC(=O)C2)cc(=O)n1[C@H](C)c1ccc(C#CC2CC2)cc1 [Compound I-245] |
| ≤ 0.3 | – | > 75 | Cc1cc(OCC(=O)N2CC3(COC3)C2)cc(=O)n1[C@H](C)c1ccc(C#CC2CC2)cc1 [Compound I-283] |
| ≤ 0.3 | > 75 | – | Cc1cc(OCC(=O)N2CC[C@@H](C#N)C2)cc(=O)n1[C@H](C)c1ccc(C#CC2CC2)cc1 [Compound I-309] |
| – | > 75 | – | Cc1cc(OCC(=O)N2CC[C@@H](C3CC3)C2)cc(=O)n1[C@H](C)c1ccc(C#CC2CC2)cc1 [Compound I-311] |
| 0.3 to 1 | > 75 | – | Cc1cc(OCc2nnn(C)n2)cc(=O)n1[C@H](C)c1ccc(C#CC2CC2)cc1 [Compound I-261] |
| 1 to 3 | > 75 | – | Cc1cc(OCC(=O)N2CC(C)(C#N)C2)cc(=O)n1[C@H](C)c1ccc(C#CC2CC2)cc1 [Compound I-343] |
| ≤ 0.3 | > 75 | – | Cc1cc(OCC(=O)N(C2CC2)C2CC2)cc(=O)n1[C@H](C)c1ccc(C#CC2CC2)cc1 [Compound I-278] |
| ≤ 0.3 | – | > 75 | Cc1cc(OCC(=O)N(C)CC(C)C)cc(=O)n1[C@H](C)c1ccc(C#CC2CC2)cc1 [Compound I-65] |
| ≤ 0.3 | > 75 | – | Cc1cc(OCC(=O)N2CCCC2)cc(=O)n1[C@H](C)c1ccc(C#CC2CC2)c(F)c1 [Compound I-25] |
| ≤ 0.3 | > 75 | – | Cc1cc(OCC(=O)N2CC(C)(CO)C2)cc(=O)n1[C@H](C)c1ccc(C#CC2CC2)cc1 [Compound I-313] |
| ≤ 0.3 | > 75 | – | Cc1cc(OCC(=O)N2CCC[C@H]2C#N)cc(=O)n1[C@H](C)c1ccc(C#CC2CC2)cc1 [Compound I-305] |
| ≤ 0.3 | – | > 75 | Cc1cc(OCC(=O)N2CC(C)(O)C2)cc(=O)n1[C@H](C)c1ccc(C#CC2CC2)cc1 [Compound I-345] |

More lines, now with the values behind:

| SMILES | IC50 [µM] | inhibition at 2 µM [%] | inhibition at 10 µM [%] |
| --- | --- | --- | --- |
| Cc1cc(OCc2nncn2C)cc(=O)n1[C@H](C)c1ccc(C#CC2CC2)cc1 [Compound I-330] | ≤ 0.3 | > 75 | – |
| Cc1nc(OCC(=O)N(C)C)cc(=O)n1C(C)c1ccc(C#CC2CC2)cc1 (stereo not shown) [Compound I-89] | ≤ 0.3 | > 75 | – |
| Cc1cc(OCC2(N(C)C)CC2)cc(=O)n1[C@H](C)c1ccc(C#CC2CC2)c(F)c1 [Compound I-31] | – | – | 25 to 50 |
| Cc1cc(OCC(=O)N(C)C)cc(=O)n1C(C)c1ccc(C#CC2CC2)cc1Cl (stereo not shown) [Compound I-262] | – | – | > 75 |
| Cc1cc(OCC(N(C)C)C(F)(F)F)cc(=O)n1[C@H](C)c1ccc(C#CC2CC2)c(F)c1 (stereo partly shown) [Compound I-85] | – | – | 50 to 75 |
| Cc1cc(OCc2ncccn2)cc(=O)n1[C@H](C)c1ccc(/C=C/C2CC2)cc1 [Compound I-149] | – | – | < 25 |
| Cc1cc(OCC(=O)N(C)C)cc(=O)n1[C@H](C)c1ccc(C#CC(=O)O)cc1 [Compound I-264] | – | – | < 25 |
| Cc1cc(OCc2cnc(C3CC3)cn2)cc(=O)n1C(C)c1ccc(OCC2CCCCO2)c(F)c1 (stereo not shown) [Compound I-13] | – | – | < 25 |
| Cc1cc(/C=C2\SC(=O)NC2=O)cc(=O)n1[C@H](C)c1ccc(C#CC2CC2)cc1 [Compound I-339] | – | – | > 75 |
| Cc1cc(OCc2ncnn2C)cc(=O)n1[C@H](C)c1ccc(C#CC2CC2)cc1 [Compound I-329] | ≤ 0.3 | > 75 | – |
| Cc1cc(OCC(=O)N(C)C)cc(=O)n1[C@H](C)c1ccc(C#CC2CC2(F)F)cc1 (stereo partly shown) [Compound I-63] | ≤ 0.3 | – | > 75 |
| Cc1nc(OCC(=O)N2CCC[C@H]2C(=O)O)cc(=O)n1[C@H](C)c1ccc(C#CC2CC2)cc1 [Compound I-297] | – | – | > 75 |
| Cc1cc(OCc2ncccn2)cc(=O)n1[C@H](C)c1ccc(-c2ccc(C3CC3)cc2)cc1 [Compound I-150] | – | – | < 25 |
| Cc1cc(OCC(=O)N(C)C)cc(=O)n1[C@H](C)c1ccc(C#CCC2CC2)cc1 [Compound I-32] | ≤ 0.3 | > 75 | – |
| Cc1cc(C#CC2CC2)cc(=O)n1[C@H](C)c1ccc(C#CC2CC2)cc1 [Compound I-90] | – | – | 50 to 75 |
| Cc1cc(OCC(=O)N2CC(F)(F)C2)cc(=O)n1[C@H](C)c1ccc(C#CC2CC2)c(F)c1 [Compound I-24] | 0.3 to 1 | – | > 75 |
| Cc1cc(OCC(=O)N(C)C)cc(=O)n1[C@H](C)c1ccc(-c2nnn[nH]2)cc1 [Compound I-266] | – | – | < 25 |
| Cc1cc(OCC(=O)N(C)C)cc(=O)n1C(C)c1ccncc1 (stereo not shown) [Compound I-227] | – | – | < 25 |
| Cc1cc(C#CC2CC2)cc(=O)n1[C@H](C)c1ccc(Br)cc1 [Compound I-240] | – | – | < 25 |
